13 compounds from patent publication US10808007B2, “Desacetoxytubulysin H and analogs thereof” (WILLIAM MARSH RICE UNIVERSITY, priority 2015, dated 2020) can be followed below.

Common to all, as to type: cell-based
The test system of assay [1] is MES SA (uterine sarcoma cells). The experiment in a line: Cytotoxic assay (CellTiter-Glo, 72 h), MES SA. To be noted: Homo sapiens, MES-SA, read-out: IC50 MES SA. A general note: Cellular ATP, detected with luciferase, serves as a proxy for viable cell number.
Assay [2] has as its system MES SA DX (multidrug resistant uterine sarcoma cells). The assay is described as follows: Cytotoxic assay (CellTiter-Glo, 72 h), MES SA DX. Particulars: Homo sapiens.
In assay [3] the test system is HEK 293T (human embryonic kidney cells). The assay is described as follows: Cytotoxic assay (CellTiter-Glo, 72 h), HEK 293T. To be noted: Homo sapiens, HEK-293T, read-out: IC50 HEK 293T.

Like-named read-outs stand apart in the source and are kept apart here. Where only a bound is given, the exact number is not on record here.

What is called IC50 is the concentration needed to halve the response being measured. As to `COC(=O)[C@@H](C)C[C@H](Cc1ccccc1)NC(=O)c1csc([C@@H](C[C@H](C(C)C)N(C)C(=O)C2(NC(=O)[C@H]3CCCCN3C)CCC2)OC(C)=O)n1` [Tb28, (2S,4R)-Methyl 4-(2-((1R,3R)-1-acetoxy-4-methyl-3-(N-methyl-1-((R)-1-methylpiperidine-2-carboxamido)cyclobutanecarboxamido)pentyl)thiazole-4-carboxamido)-2-methyl-5-phenylpentanoate], the IC50 in assay [1] (72 h) was 1.13 nM; in assay [2], 81.7 nM; in assay [3] (72 h), 0.69 nM.

As for `COC(=O)[C@@H](C)C[C@H](Cc1ccccc1)NC(=O)c1csc([C@@H](C[C@H](C(C)C)N(C)C(=O)[C@@H](NC(=O)[C@H]2CCCCN2C)c2ccc(F)cc2)OC(C)=O)n1` [Tb29, (2S,4R)-Methyl 4-(2-((1R,3R)-1-acetoxy-3-((S)-2-(4-fluorophenyl)-N-methyl-2-((R)-1-methylpiperidine-2-carboxamido)acetamido)-4-methylpentyl)thiazole-4-carboxamido)-2-methyl-5-phenylpentan oate], the IC50 is 2.61 nM in assay [1] (72 h), 500 nM in assay [2] and 2.24 nM in assay [3] (72 h).

As for `CC(=O)O[C@H](C[C@H](C(C)C)N(C)C(=O)[C@@H](NC(=O)[C@H]1CCCCN1C)C1CC1)c1nc(C(=O)N[C@@H](Cc2ccccc2)C[C@H](C)C(=O)O)cs1` [Tb30, (2S,4R)-4-(2-((1R,3R)-1-Acetoxy-3-((S)-2-cyclopropyl-N-methyl-2-((R)-1-methylpiperidine-2-carboxamido)acetamido)-4-methylpentyl)thiazole-4-carboxamido)-2-methyl-5-phenylpentanoic Acid], the IC50 in assay [1] (72 h) was 4.09 nM; in assay [2], above 100 nM; in assay [3] (72 h) it was 0.35 nM.

Turning to `COC(=O)[C@@H](C)C[C@H](Cc1ccccc1)NC(=O)c1csc([C@@H](C[C@H](C(C)C)N(C)C(=O)[C@@H](NC(=O)[C@H]2CCCCN2C)C(C)C)OC(C)=O)n1` [Tb32, (2S,4R)-Methyl 4-(2-((1R,3R)-1-acetoxy-3-((S)—N,3-dimethyl-2-((R)-1-methylpiperidine-2-carboxamido)butanamido)-4-methylpentyl)thiazole-4-carboxamido)-2-methyl-5-phenylpentanoate], the IC50 amounted to 0.012 nM in assay [1] (72 h); 0.012 nM in assay [1]; 1.29 nM in assay [2]; 0.002 nM in assay [3] (72 h); 0.002 nM in assay [3].

Consider `COC(=O)[C@@H](C)C[C@H](Cc1ccccc1)NC(=O)c1csc([C@@H](C[C@H](C(C)C)N(C)C(=O)[C@@H](NC(=O)[C@H]2CCCCN2C)C2CCCCC2)OC(C)=O)n1` [Tb33, (2S,4R)-Methyl 4-(2-((1R,3R)-1-acetoxy-3-((S)-2-cyclohexyl-N-methyl-2-((R)-1-methylpiperidine-2-carboxamido)acetamido)-4-methylpentyl)thiazole-4-carboxamido)-2-methyl-5-phenylpentanoate], for which the IC50 in assay [1] (72 h) amounted to 0.066 nM; in assay [1], 0.066 nM; in assay [2], 101 nM; in assay [3] (72 h) it was 0.048 nM; in assay [3], 0.048 nM.

Regarding `CC[C@H](C)[C@H](NC(=O)c1ncccn1)C(=O)N(C)[C@H](C[C@@H](OC(C)=O)c1nc(C(=O)N[C@@H](Cc2ccccc2)C[C@H](C)C(=O)OC)cs1)C(C)C` [Tb34, (2S,4R)-methyl 4-(2-((1R,3R)-1-acetoxy-3-((2S,3S)—N,3-dimethyl-2-(pyrimidine-2-carboxamido)pentanamido)-4-methylpentyl)thiazole-4-carboxamido)-2-methyl-5-phenylpentanoate], the IC50 in assay [1] (72 h) was above 1000 nM; in assay [2] it was above 1000 nM; in assay [3] (72 h), above 500 nM.

For `CC[C@H](C)[C@H](NC(=O)c1cnccn1)C(=O)N(C)[C@H](C[C@@H](OC(C)=O)c1nc(C(=O)N[C@@H](Cc2ccccc2)C[C@H](C)C(=O)OC)cs1)C(C)C` [Tb35, (2S,4R)-methyl 4-(2-((1R,3R)-1-acetoxy-3-((2S,3S)—N,3-dimethyl-2-(pyrazine-2-carboxamido)pentanamido)-4-methylpentyl)thiazole-4-carboxamido)-2-methyl-5-phenylpentanoate], the half-inhibitory concentration (IC50) is above 1000 nM in assay [1] (72 h), above 1000 nM in assay [2] and above 500 nM in assay [3] (72 h).

As to `COC(=O)[C@@H](C)C[C@H](Cc1ccccc1)NC(=O)c1cccc([C@@H](C[C@H](C(C)C)N(C)C(=O)[C@@H](NC(=O)[C@H]2CCCCN2C)C2CC2)OC(C)=O)n1` [Tb36, Methyl (2S,4R)-4-(6-((1R,3R)-1-acetoxy-3-((S)-2-cyclopropyl-N-methyl-2-((R)-1-methylpiperidine-2-carboxamido)acetamido)-4-methylpentyl)picolinamido)-2-methyl-5-phenylpentanoate], the IC50 is 0.308 nM in assay [1] (72 h); 0.308 nM in assay [1]; above 1000 nM in assay [2]; 0.631 nM in assay [3] (72 h); 0.631 nM in assay [3].

`CC(=O)O[C@H](C[C@H](C(C)C)N(C)C(=O)[C@@H](NC(=O)[C@H]1CCCCN1C)C1CC1)c1cccc(C(=O)N[C@@H](Cc2ccccc2)C[C@H](C)C(=O)O)n1` [Tb37, (2S,4R)-4-(6-((1R,3R)-1-Acetoxy-3-((S)-2-cyclopropyl-N-methyl-2-((R)-1-methylpiperidine-2-carbox-amido)acetamido)-4-methylpentyl)picolinamido)-2-methyl-5-phenylpentanoic Acid]: the IC50 in assay [1] (72 h) is 14.4 nM; in assay [2], above 1000 nM; in assay [3] (72 h), 3.52 nM.

For `CC[C@H](C)[C@H](NC(=O)[C@H]1CCCCN1C)C(=O)N(C)[C@H](C[C@@H](OC(C)=O)c1cccc(C(=O)N[C@@H](Cc2ccccc2)C[C@H](C)C(=O)OC)n1)C(C)C` [Tb38, Methyl (2S,4R)-4-(6-((1R,3R)-1-acetoxy-3-((2S,3S)—N,3-dimethyl-2-((R)-1-methylpiperidine-2-carboxamido)pentanamido)-4-methylpentyl)picolinamido)-2-methyl-5-phenylpentanoate], the IC50 was 0.357 nM in assay [1] (72 h); 0.357 nM in assay [1]; below 500 nM in assay [2]; 0.574 nM in assay [3] (72 h); 0.574 nM in assay [3].

Regarding `CC[C@H](C)[C@H](NC(=O)[C@H]1CCCCN1C)C(=O)N(C)[C@H](C[C@@H](OC(C)=O)c1cccc(C(=O)N[C@@H](Cc2ccccc2)C[C@H](C)C(=O)O)n1)C(C)C` [Tb39, (2S,4R)-4-(6-((1R,3R)-1-acetoxy-3-((2S,3S)—N,3-dimethyl-2-((R)-1-methylpiperidine-2 carboxamido)pentanamido)-4-methylpentyl)picolinamido)-2-methyl-5-phenylpentanoic Acid], the IC50 in assay [1] (72 h) was 0.891 nM; in assay [1], 0.891 nM; in assay [2], below 500 nM; in assay [3] (72 h) it was 0.194 nM; in assay [3], 0.194 nM.

For the compound `COC(=O)[C@@H](C)C[C@H](Cc1ccc(F)cc1)NC(=O)c1csc([C@@H](C[C@H](C(C)C)N(C)C(=O)[C@@H](NC(=O)[C@H]2CCCCN2C)C(C)C)OC(C)=O)n1` [Tb40, Methyl(2S,4R)-4-(2-((1R,3R)-1-acetoxy-3-((S)—N,3-dimethyl-2-((R)-1-methylpiperidine-2-carboxamido)butanamido)-4-methylpentyl)thiazole-4-carboxamido)-5-(4-fluorophenyl)-2-methylpentanoate], the figures for the IC50 in assay [1] (72 h), in assay [2] and in assay [3] (72 h) were 15.6 nM, above 1000 nM and above 1000 nM, respectively.

Regarding `COC(=O)[C@@H](C)C[C@H](Cc1cn(C)c2ccccc12)NC(=O)c1csc([C@@H](C[C@H](C(C)C)N(C)C(=O)[C@@H](NC(=O)[C@H]2CCCCN2C)C(C)C)OC(C)=O)n1` [Tb41, Methyl(2S,4R)-4-(2-((1R,3R)-1-acetoxy-3-((S)—N,3-dimethyl-2-((R)-1-methylpiperidine-2-carboxamido)butanamido)-4-methylpentyl)thiazole-4-carboxamido)-2-methyl-5-(1-methyl-1H-indol-3-yl)pen-tanoate], the IC50 in assay [1] (72 h) was above 1000 nM; in assay [2] it was above 1000 nM; in assay [3] (72 h), 21.1 nM.
